“And” between values parts separate entries of the source, which are not always exact repeats. Equal entries are not always repeated. Toxic doses and inconclusive results are not listed. Peptide text beside a SMILES is read from it.
Test system: P388 leukemia ip, CD2F1 mice, survival T/C
Assay: NCI In Vivo Anticancer Drug Screen. Data for tumor model P388 Leukemia (intraperitoneal) in CD2F1 (CDF1) mice
Conditions: endpoint: median survival time, higher = longer survival
Procedure, shortened: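 Mice carrying the transplanted tumor received test compound or vehicle. Survival was recorded in each group, and the value is the treated-group measurement divided by that of the vehicle-treated control group.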

[1] = dose: 50.0 mg/kg/injection, schedule: Q01DX009 (ip), vehicle: saline with Tween-80
[2] = dose: 100.0 mg/kg/injection, schedule: Q01DX009 (ip), vehicle: saline with Tween-80
[3] = dose: 200.0 mg/kg/injection, schedule: Q01DX009 (ip), vehicle: saline with Tween-80
[4] = dose: 50.0 mg/kg/injection, schedule: Q01DX005 (ip), vehicle: Klucel (hydroxypropylcellulose) (HPC)
[5] = dose: 100.0 mg/kg/injection, schedule: Q01DX005 (ip), vehicle: Klucel (hydroxypropylcellulose) (HPC)
[6] = dose: 200.0 mg/kg/injection, schedule: Q01DX005 (ip), vehicle: Klucel (hydroxypropylcellulose) (HPC)
[7] = dose: 50.0 mg/kg/injection, schedule: Q01DX005 (ip), vehicle: saline with Tween-80
[8] = dose: 100.0 mg/kg/injection, schedule: Q01DX005 (ip), vehicle: saline with Tween-80
[9] = dose: 200.0 mg/kg/injection, schedule: Q01DX005 (ip), vehicle: saline with Tween-80
[10] = dose: 50.0 mg/kg/injection, schedule: Q01DX009 (ip), vehicle: saline
[11] = dose: 100.0 mg/kg/injection, schedule: Q01DX009 (ip), vehicle: saline
[12] = dose: 200.0 mg/kg/injection, schedule: Q01DX009 (ip), vehicle: saline
[13] = dose: 50.0 mg/kg/injection, schedule: Q01DX009 (ip), vehicle: Klucel (hydroxypropylcellulose) (HPC)

In the case of `CCN(CC)CCOc1ccc(N(CCCl)CCCl)cc1`, the T/C (dose: 3.13 mg/kg/injection, schedule: Q04DX003 (ip), vehicle: Klucel (hydroxypropylcellulose) (HPC)) was 117 % of control, the T/C (dose: 12.5 mg/kg/injection, schedule: Q04DX003 (ip), vehicle: Klucel (hydroxypropylcellulose) (HPC)) was 153 % of control and 168 % of control and the T/C (dose: 25.0 mg/kg/injection, schedule: Q04DX003 (ip), vehicle: Klucel (hydroxypropylcellulose) (HPC)) was 90 % of control.
In the case of `O=c1c2cc3c(cc2c2cccc4ccn1c42)OCO3`, the T/C (dose: 4.5 mg/kg/injection, schedule: Q01DX009 (ip), vehicle: Klucel (hydroxypropylcellulose) (HPC)) was 105 % of control, the T/C (dose: 9.0 mg/kg/injection, schedule: Q01DX009 (ip), vehicle: Klucel (hydroxypropylcellulose) (HPC)) was 115 % of control and the T/C (dose: 18.0 mg/kg/injection, schedule: Q01DX009 (ip), vehicle: Klucel (hydroxypropylcellulose) (HPC)) was 107 % of control. For the same compound, the T/C (dose: 36.0 mg/kg/injection, schedule: Q01DX009 (ip), vehicle: Klucel (hydroxypropylcellulose) (HPC)) was 104 % of control.
In the case of `O=Cc1ccc(C(Cl)(Cl)Cl)nc1`, the T/C [1] was 105 % of control, the T/C [2] was 110 % of control and the T/C [3] was 115 % of control.
For `C#CC1(NC(=O)c2ccccc2C(=O)Nc2cccc(C(F)(F)F)c2)CCCCC1`, the T/C [1] was 97 % of control, the T/C [2] was 89 % of control and the T/C [3] was 89 % of control.
For `O=C(N/N=C/c1ccccc1Cl)c1cccnc1`, the T/C (dose: 60.0 mg/kg/injection, schedule: Q01DX005 (ip), vehicle: saline with Tween-80) was 90 % of control, the T/C (dose: 120.0 mg/kg/injection, schedule: Q01DX005 (ip), vehicle: saline with Tween-80) was 93 % of control and the T/C (dose: 240.0 mg/kg/injection, schedule: Q01DX005 (ip), vehicle: saline with Tween-80) was 89 % of control.
For `N#Cc1c(N)nc2c(c1N)CC(CCl)O2` (stereo not given), the T/C [1] was 94 % of control, the T/C [2] was 96 % of control and the T/C [3] was 87 % of control.
With `COc1ccc2c(C)cc(NN)nc2c1` the T/C (dose: 6.25 mg/kg/injection, schedule: Q01DX005 (ip), vehicle: Klucel (hydroxypropylcellulose) (HPC)) was 104 % of control and the T/C (dose: 12.5 mg/kg/injection, schedule: Q01DX005 (ip), vehicle: Klucel (hydroxypropylcellulose) (HPC)) was 103 % of control.
For `O=C1CSc2nc3c(I)cc(I)cc3c(=O)n21`, the T/C [4] was 101 % of control, the T/C [5] was 100 % of control and the T/C [6] was 98 % of control.
In the case of `O=C1C=CC(=O)C1=Cc1ccc([N+](=O)[O-])o1`, the T/C (dose: 0.78 mg/kg/injection, schedule: Q04DX002 (ip), vehicle: saline with Tween-80) was 106 % of control, the T/C (dose: 1.56 mg/kg/injection, schedule: Q04DX002 (ip), vehicle: saline with Tween-80) was 97 % of control and the T/C (dose: 3.12 mg/kg/injection, schedule: Q04DX002 (ip), vehicle: saline with Tween-80) was 97 % of control.
With `Cc1ccc2nc(=O)c3cccnc3n2c1` the T/C (dose: 3.75 mg/kg/injection, schedule: Q01DX005 (ip), vehicle: saline) was 103 % of control, the T/C (dose: 7.5 mg/kg/injection, schedule: Q01DX005 (ip), vehicle: saline) was 97 % of control and the T/C (dose: 15.0 mg/kg/injection, schedule: Q01DX005 (ip), vehicle: saline) was 98 % of control.
With `CCN1c2ccccc2CC(CCN(C)Cc2ccccc2)(C(N)=O)c2ccccc21` (stereo not given) the T/C (dose: 12.5 mg/kg/injection, schedule: Q01DX009 (ip), vehicle: saline with Tween-80) was 92 % of control, the T/C (dose: 25.0 mg/kg/injection, schedule: Q01DX009 (ip), vehicle: saline with Tween-80) was 99 % of control and the T/C [1] was 100 % of control.
`C=C(C)C(=O)OC1CC2(C)OC(=CC2=O)C(C)CC2OC(=O)C(=C)C12` (stereo not given) was tested, and the T/C (dose: 25.0 mg/kg/injection, schedule: Q01DX001 (ip), vehicle: saline with Tween-80) was 118 % of control and the T/C (dose: 50.0 mg/kg/injection, schedule: Q01DX001 (ip), vehicle: saline with Tween-80) was 116 % of control.
`Cc1ccc(S(=O)(=O)NC(=O)/N=C2\NC(=O)CS2)cc1` was tested, and the T/C [7] was 100 % of control, the T/C [8] was 103 % of control and the T/C [9] was 91 % of control.
In the case of `CCc1cccc(CC)c1N1C(=O)C2=C(SCCCS2)C1=O`, the T/C [10] was 98 % of control, the T/C [11] was 102 % of control and the T/C [12] was 107 % of control.
With `Cc1ccc(S(=O)(=O)OCC2(COS(=O)(=O)c3ccc(C)cc3)COC2)cc1` the T/C (dose: 50.0 mg/kg/injection, schedule: Q01DX001 (ip), vehicle: Klucel (hydroxypropylcellulose) (HPC)) was 107 % of control, the T/C (dose: 100.0 mg/kg/injection, schedule: Q01DX001 (ip), vehicle: Klucel (hydroxypropylcellulose) (HPC)) was 103 % of control and the T/C (dose: 200.0 mg/kg/injection, schedule: Q01DX001 (ip), vehicle: Klucel (hydroxypropylcellulose) (HPC)) was 100 % of control.
For `CC(C)(C)c1cc(C(=O)O)c2soc(=O)c2c1`, the T/C [13] was 106 % of control, the T/C (dose: 100.0 mg/kg/injection, schedule: Q01DX009 (ip), vehicle: Klucel (hydroxypropylcellulose) (HPC)) was 109 % of control and the T/C (dose: 200.0 mg/kg/injection, schedule: Q01DX009 (ip), vehicle: Klucel (hydroxypropylcellulose) (HPC)) was 111 % of control.
`COc1cccc2c1C(=O)c1c(O)c3c(c(O)c1C2=O)C[C@@](O)(/C(C)=N/NC(=O)c1cccs1)C[C@@H]3OC1CC(N)C(O)C(C)O1` (stereo not given in full) was tested, and the T/C (dose: 1.56 mg/kg/injection, schedule: Q04DX003 (ip), vehicle: saline) was 169 % of control, the T/C (dose: 3.13 mg/kg/injection, schedule: Q04DX003 (ip), vehicle: saline) was 178 % of control and the T/C (dose: 6.25 mg/kg/injection, schedule: Q04DX003 (ip), vehicle: saline) was 191 % of control. The T/C (dose: 12.5 mg/kg/injection, schedule: Q04DX003 (ip), vehicle: saline) was 206 % of control and the T/C (dose: 25.0 mg/kg/injection, schedule: Q04DX003 (ip), vehicle: saline) was 104 % of control.
`CCOC(=O)CC1=CS/C(=C(/C#N)C(=O)OCC)S1` was tested, and the T/C [7] was 93 % of control, the T/C [8] was 98 % of control and the T/C [9] was 94 % of control.
In the case of `CC(C)=CCC/C(C)=C/COC(=O)C1C(C=C(C)C)C1(C)C` (stereo not given), the T/C [10] was 100 % of control, the T/C [11] was 100 % of control and the T/C [12] was 116 % of control. For the same compound, the T/C (dose: 400.0 mg/kg/injection, schedule: Q01DX009 (ip), vehicle: saline) was 101 % of control.
For `Cc1ccc(Cl)c(S(=O)(=O)F)c1`, the T/C [3] was 104 % of control and the T/C (dose: 400.0 mg/kg/injection, schedule: Q01DX009 (ip), vehicle: saline with Tween-80) was 100 % of control.
With `Cc1nc2ncn(-c3ccccc3)c2c(=O)n1C` the T/C [4] was 95 % of control, the T/C [5] was 90 % of control and the T/C [6] was 95 % of control.
With `CN(C)c1nc(Cl)nc2c1nc(Cl)n2C1CCCCO1` (stereo not given) the T/C [4] was 93 % of control, the T/C [5] was 90 % of control and the T/C [6] was 102 % of control.
In the case of `CC(C)(C)S.[Ge]`, the T/C (dose: 7.5 mg/kg/injection, schedule: Q01DX009 (ip), vehicle: saline with Tween-80) was 106 % of control, the T/C (dose: 15.0 mg/kg/injection, schedule: Q01DX009 (ip), vehicle: saline with Tween-80) was 107 % of control and the T/C (dose: 30.0 mg/kg/injection, schedule: Q01DX009 (ip), vehicle: saline with Tween-80) was 103 % of control.
For `CCOC1OCN(CCc2ccccc2)CC1(C)C` (stereo not given), the T/C [1] was 108 % of control, the T/C [2] was 119 % of control and the T/C [3] was 118 % of control.
With `COc1ccc(Cc2cc3c(cc2OC(C)=O)OCO3)cc1` the T/C [7] was 100 % of control, the T/C [8] was 100 % of control and the T/C [9] was 99 % of control.
`CC(=O)Oc1c2occc2cc2ccc(=O)oc12` was tested, and the T/C [7] was 99 % of control, the T/C [8] was 98 % of control and the T/C [9] was 100 % of control.
For `c1ccc2c(N3CCCCC3)ncnc2c1`, the T/C (dose: 50.0 mg/kg/injection, schedule: Q01DX005 (ip), vehicle: saline) was 107 % of control and the T/C (dose: 100.0 mg/kg/injection, schedule: Q01DX005 (ip), vehicle: saline) was 100 % of control.
In the case of `NC(Cc1ccccc1)C(=O)NC(CCC(=O)O)C(=O)NC(CCC(=O)O)C(=O)O` (stereo not drawn) (H-Phe-Glu-Glu-OH; configuration not given here), the T/C [4] was 103 % of control, the T/C [5] was 100 % of control and the T/C [6] was 96 % of control.
`O=c1[nH]c(=S)[nH]c2c(=O)[nH]c(=S)[nH]c12` was tested, and the T/C (dose: 12.5 mg/kg/injection, schedule: Q01DX009 (ip), vehicle: Klucel (hydroxypropylcellulose) (HPC)) was 107 % of control, the T/C (dose: 25.0 mg/kg/injection, schedule: Q01DX009 (ip), vehicle: Klucel (hydroxypropylcellulose) (HPC)) was 101 % of control and the T/C [13] was 101 % of control and 111 % of control.
In the case of `COC(=O)c1cc(=O)n(-c2cccc(OC)c2)c(SC)n1`, the T/C (dose: 25.0 mg/kg/injection, schedule: Q04DX002 (ip), vehicle: Klucel (hydroxypropylcellulose) (HPC)) was 107 % of control, the T/C (dose: 50.0 mg/kg/injection, schedule: Q04DX002 (ip), vehicle: Klucel (hydroxypropylcellulose) (HPC)) was 103 % of control and the T/C (dose: 100.0 mg/kg/injection, schedule: Q04DX002 (ip), vehicle: Klucel (hydroxypropylcellulose) (HPC)) was 104 % of control and 105 % of control.
